Assay results published in patent US6599899B2, “Benzoxazinones as peroxisome proliferator activated receptor gamma modulators and method of treatment” (Ortho-McNeil Pharmaceutical, Inc., priority 2000, dated 2003).

System: aP2 mRNA production
Assay: aP2 assay for agonist (induction of aP2 mRNA production, bDNA assay)
Assay type: cell-based
Settings: preadipocytes

SMILES: CCCCCCN1C(=O)C(CCOc2ccccc2CC(=O)O)Oc2ccccc21 (stereo not shown) [Compound 1, Benzeneacetic acid, 2-[2-(4-hexyl-3,4-dihydro-3-oxo-2H-1,4-benzoxazin-2-yl)ethoxy]-]
- Agonist Intrinsic Activity: 40.4 fold increase over vehicle
